Where two headings read alike, the source gives them in different places.
Experiments:
focal ischemia [1] = details: rat; temporary model: given 3 hours or even 5 hours after start of recirculation; cited from earlier work
traumatic brain injury = details: administered either 15 minutes prior or 30 minutes post injury; preliminary studies; cited from earlier work
[2] = test system: dissociated retinal cells; assay: MTT viability of dissociated retinal cells exposed to NaCN and 2-deoxyglucose (simulated ischemia); assay type: cell-based, rabbit; details: NaCN and 2-DG giving approximately 60% toxicity, p<0.004
cultured neurons = assay: MTT neuroprotection assay in cultured neurons after H2O2 oxidative insult; assay type: cell-based; details: for % Neuroprotection: 4 h pre-treatment, 50 μM H2O2 30 min, MTT after 24 h, mean±SEM
Protocol: In a separate series of experiments, cultured neurons were pre-treated with four different concentrations of DHL with or without 10 mM SPBN for four hours. At the conclusion of the preincubation period, an oxidative insult was applied by adding 50 μM of hydrogen peroxide (H2O2) for an additional 30 min. Medium containing the H2O2 and antioxidants was then removed and Minimum Essential Medium (MEM) was added to the wells for 24 hours. Neuroprotection was then assessed by conducting the calorimetric MTT assay. One way ANOVA with significance of differences between means assessed by Tukey-Kramer Multiple Comparisons test.
Data are depicted as means±SEM (n=8). Significance was determined by one way ANOVA, and differences between the means was assessed by the Tukey-Kramer test. (See table 1).

[3] = in vivo; cited from earlier work
[4] = test system: ischemia-perfusion injury; details: rat; cited from earlier work
[5] = test system: ischemia-perfusion injury; details: gerbil; cited from earlier work
lesions of striatum = details: rats; cited from earlier work
retinal ganglion cells = details: 500 ng by intraocular injection; Klocker et al.; cited from earlier work
[6] = Aldrich catalog description; cited from earlier work
striatal lesions = details: 100 mg/kg i.p. 30 min prior and q 8 hours for 48 hours after insult; or 300 mg/kg ip repeated; cited from earlier work
[7] = in vivo; cited from earlier work; remark: listed apart in the source
[8] = cited from earlier work
cortical contusion = details: rat; cited from earlier work
focal ischemia [9] = details: initiation of treatment delayed as long as 12 hours; cited from earlier work
ferrous chloride = details: mice, intracerebral lethal injection of ferrous chloride; cited from earlier work

Question: Which “efficacy in temporary and permanent focal ischemia” value (focal ischemia [1]) does the source give for `CC(C)(C)[N+]([O-])=Cc1ccc(S(=O)(=O)[O-])cc1S(=O)(=O)[O-].[Na+].[Na+]` [NXY-059] here?
Answer: The value was “effective”.

Question: What about the “volume of necrosis after traumatic brain injury” value (traumatic brain injury) of the same molecule?
Answer: The value was “effective in decreasing volume of necrosis”.

Question: Which results are given for `O=C(O)CCCC[C@@H](S)CCS` (racemic) [DHL, dihydrolipoic acid]?
Answer: protection against damage from NaCN and 2-DG (maximum effect) ([2]; DHL 0.3 millimolar co-administered): approximately 60%; Emax ([2]; Oryctolagus cuniculus, DHL 0.1 millimolar co-administered, read-out: protection against damage from NaCN and 2-DG (maximum effect)): ~60%; % Neuroprotection (cultured neurons; DHL 3 μM): 1.31 ± 5.23%; % Neuroprotection (cultured neurons; DHL 10 μM): −3.68 ± 5.14%; % Neuroprotection (cultured neurons; DHL 30 μM): 7.04 ± 7.38%; % Neuroprotection (cultured neurons; DHL 100 μM): 28.48 ± 5.83%

Question: With `O=C(O)CCCCC1CCSS1` (stereo not drawn) [αLA, Alpha-lipoic acid] as the molecule, how does the clinical safety [3] read?
Answer: The clinical safety was “clinically safe”.

Question: What about the “neuroprotection against ischemia-perfusion injury” value [4] of the same molecule?
Answer: Its value is “neuro-protective”.

Question: What about the “neuroprotection against ischemia-perfusion injury” value [5] of the same molecule?
Answer: The value was “neuro-protective”.

Question: And the “efficacy against NMDA and malonic acid lesions of striatum” value (lesions of striatum)?
Answer: Its value is “effective”.

Question: Which “effect of SPBN on the neuroprotective efficacy of DHL” value (cultured neurons; 10 mM SPBN, at three of the four DHL concentrations tested) does the source give for `CC(C)(C)[N+]([O-])=Cc1ccccc1S(=O)(=O)O` [SPBN, N-tert-Butyl-α-[2-sulfophenyl]-nitrone] here?
Answer: The value was “significantly increased”.

Question: And the “retinal ganglion cells rescued after axotomy” value (retinal ganglion cells)?
Answer: The value was 27%.

Question: And the water solubility [6]?
Answer: Its water solubility is “water-soluble”.

Question: And the “protection against striatal toxin lesions (lesion volume)” value (striatal lesions)?
Answer: The value was “protective”.

Question: For `CC(C)(C)[N+]([O-])=Cc1ccccc1` [PBN, α-Phenyl-N-tert-butylnitrone], which “blood brain barrier crossing” value [7] is on record?
Answer: Its value is “crosses the blood brain barrier”.

Question: What about the toxicity ([8]; in high concentrations) of the same molecule?
Answer: Its toxicity is “somewhat toxic”.

Question: And the toxicity ([8]; very high doses)?
Answer: The toxicity was “toxicity is a problem”.

Question: What about the “accumulation of lactate following cortical contusion” value (cortical contusion) of the same molecule?
Answer: Its value is “attenuate”.

Question: What about the “neuroprotection in rat focal ischemia model” value (focal ischemia [9]) of the same molecule?
Answer: The value was “neuroprotective”.

Question: And the “seizures and time to death after ferrous chloride” value (ferrous chloride)?
Answer: The value was “minimized seizures and delayed time to death”.

Reference: US6339102B1, “Method and composition for treating and preventing retinal damage” (The United States of America as represented by the …, priority 1999, dated 2002)
